The values that follow come from ChEMBL document CHEMBL1921695, “Cembranolides from the leaves of Croton gratissimus” (J Nat Prod, 2011).

In the assay the test system is Plasmodium falciparum. Nature of the assay: Antiplasmodial activity against chloroquine-sensitive Plasmodium falciparum D10 infected in human erythrocytes after 3 to 4 days by lactate dehydrogenase assay. It is filed as functional, organism-based.

Values after ≈ are worked out from the molar mass of the structure shown.

In general, IC50 refers to the concentration that gives 50% inhibition. Low values mean higher potency, high ones lower potency. Molecule `C/C1=C\CC[C@](C)(O)/C=C/[C@@H](C(C)C)CCC2=C[C@@H](C1)OC2=O` (relative stereo) displayed an IC50 of 20.8 µg/mL (≈ 65.3 µM).
With `C=C1C[C@@H]2C=C(CC[C@](O)(C(C)C)/C=C/[C@@](C)(O)CC[C@H]1OC(C)=O)C(=O)O2` (relative stereo) the figure was 13.5 µg/mL (≈ 34.4 µM).
